Measurements from PubChem BioAssay (NCI).
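Values below derive from 48-hour exposures of cells grown in 96-well plates, with endpoints linearly interpolated between the two concentrations bracketing the appropriate inhibition level. TGI: concentration producing complete growth inhibition.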

Tests used:
Assay in all cases: inhibition of tumour cell growth, NCI panel, 48 h
SF-268 CNS = tested on: SF-268 CNS
SR leukemia = tested on: SR leukemia
SN12C renal = tested on: SN12C renal
NCI-H460 lung = tested on: NCI-H460 lung
MDA-MB-435 = tested on: MDA-MB-435
786-0 renal = tested on: 786-0 renal
SK-OV-3 ovarian = tested on: SK-OV-3 ovarian
PC-3 prostate = tested on: PC-3 prostate
MALME-3M melanoma = tested on: MALME-3M melanoma
SNB-75 CNS = tested on: SNB-75 CNS
LOX IMVI melanoma = tested on: LOX IMVI melanoma
CAKI-1 renal = tested on: CAKI-1 renal
HT29 colon = tested on: HT29 colon
SF-539 CNS = tested on: SF-539 CNS
NCI-H226 lung = tested on: NCI-H226 lung
HL-60(TB) leukemia = tested on: HL-60(TB) leukemia
UACC-257 melanoma = tested on: UACC-257 melanoma
HCC-2998 colon = tested on: HCC-2998 colon
SK-MEL-5 melanoma = tested on: SK-MEL-5 melanoma
A498 renal = tested on: A498 renal
NCI-H23 lung = tested on: NCI-H23 lung
OVCAR-5 ovarian = tested on: OVCAR-5 ovarian
SK-MEL-2 melanoma = tested on: SK-MEL-2 melanoma
SNB-19 CNS = tested on: SNB-19 CNS
SW-620 colon = tested on: SW-620 colon
DU-145 prostate = tested on: DU-145 prostate
BT-549 breast = tested on: BT-549 breast
MOLT-4 leukemia = tested on: MOLT-4 leukemia
T-47D breast = tested on: T-47D breast
OVCAR-8 ovarian = tested on: OVCAR-8 ovarian
M14 melanoma = tested on: M14 melanoma
K-562 leukemia = tested on: K-562 leukemia
CCRF-CEM leukemia = tested on: CCRF-CEM leukemia
ACHN renal = tested on: ACHN renal
MCF7 breast = tested on: MCF7 breast
COLO 205 colon = tested on: COLO 205 colon
MDA-MB-231 breast = tested on: MDA-MB-231 breast
MDA-N = tested on: MDA-N
EKVX NSCLC = tested on: EKVX NSCLC
NCI/ADR-RES ovarian = tested on: NCI/ADR-RES ovarian
HS 578T breast = tested on: HS 578T breast
HOP-62 NSCLC = tested on: HOP-62 NSCLC
U251 CNS = tested on: U251 CNS
KM12 colon = tested on: KM12 colon
OVCAR-3 ovarian = tested on: OVCAR-3 ovarian
OVCAR-4 ovarian = tested on: OVCAR-4 ovarian
UACC-62 melanoma = tested on: UACC-62 melanoma
RXF 393 renal = tested on: RXF 393 renal
HCT-116 colon = tested on: HCT-116 colon
SK-MEL-28 melanoma = tested on: SK-MEL-28 melanoma
IGROV1 ovarian = tested on: IGROV1 ovarian
HOP-92 NSCLC = tested on: HOP-92 NSCLC
NCI-H522 lung = tested on: NCI-H522 lung
A549 NSCLC = tested on: A549 NSCLC
RPMI-8226 leukemia = tested on: RPMI-8226 leukemia
SF-295 CNS = tested on: SF-295 CNS
HCT-15 colon = tested on: HCT-15 colon
UO-31 renal = tested on: UO-31 renal
TK-10 renal = tested on: TK-10 renal
DLD-1 colon = tested on: DLD-1 colon
SNB-78 CNS = tested on: SNB-78 CNS
DMS 114 small cell lung = tested on: DMS 114 small cell lung
HOP-18 NSCLC = tested on: HOP-18 NSCLC
M19-MEL melanoma = tested on: M19-MEL melanoma

Measured: TGI

O=C(O)c1cccc(CC(Br)C(=O)O)c1 (stereo not given)
not listed: DLD-1 colon | SNB-78 CNS | DMS 114 small cell lung | HOP-18 NSCLC | M19-MEL melanoma
> 100 µM: all other assays above

CC1C(=O)N(C)C2(CO)C(=O)O[C@H](C)C12O (stereo not given in full)
not listed: SN12C renal | NCI-H460 lung | MDA-MB-435 | PC-3 prostate | SNB-75 CNS | LOX IMVI melanoma | NCI-H226 lung | HL-60(TB) leukemia | UACC-257 melanoma | A498 renal | SW-620 colon | DU-145 prostate | BT-549 breast | T-47D breast | CCRF-CEM leukemia | ACHN renal | MCF7 breast | MDA-MB-231 breast | MDA-N | NCI/ADR-RES ovarian | HS 578T breast | HOP-92 NSCLC | NCI-H522 lung
> 100 µM: all other assays above
